Reference: the supplement of paper PMC7840683
± gives the standard deviation of the averaged measurements.

System: HepaRG
Test: LDH release cytotoxicity, % of total lysis control; higher = more cytotoxic
Conditions: 48 h
Method in brief: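 Eight-point half-log series of test chemicals, the highest at 100 µM, were given in duplicate for 48 h to single-lot HepaRG cells on collagen I-coated 96-well plates in serum-free induction medium with 0.5% DMSO. A Tecan Safire read resorufin fluorescence from CytoTox-ONE as a measure of LDH in 50 µL spent medium, with 0.1% Triton X in total lysis wells. Percent cytotoxicity was normalized to on-plate vehicle and total lysis controls and averaged over the duplicates.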

Cn1c(=O)c2[nH]cnc2n(C)c1=O [Theophylline]
LDH release cytotoxicity (0.03162 µM): -1.27 ± 0.97% | LDH release cytotoxicity (0.1 µM): -2.1 ± 0.29% | LDH release cytotoxicity (0.3162278 µM): -1.54 ± 0.53% | LDH release cytotoxicity (1 µM): -1.74 ± 0.26% | LDH release cytotoxicity (3.16228 µM): -1.51 ± 0.33% | LDH release cytotoxicity (10 µM): -1.15 ± 0.042% | LDH release cytotoxicity (31.6228 µM): -0.719 ± 0.16% | LDH release cytotoxicity (100 µM): -0.479 ± 0.38%

O=C1NC(=O)C(c2ccccc2)(c2ccccc2)N1 [5,5-Diphenylhydantoin]
LDH release cytotoxicity (0.01581 µM): -5.31 ± 1.9% | LDH release cytotoxicity (0.05 µM): -5.08 ± 1.3% | LDH release cytotoxicity (0.1581139 µM): -5.88 ± 1% | LDH release cytotoxicity (0.5 µM): -6.19 ± 1.8% | LDH release cytotoxicity (1.5811388 µM): -4.95 ± 1.6% | LDH release cytotoxicity (5 µM): 40.5 ± 6.5% | LDH release cytotoxicity (15.8114 µM): 50.1 ± 6.8% | LDH release cytotoxicity (50 µM): 44.7 ± 3.1%

CC(=O)CC(C)(C)O [Diacetone alcohol]
LDH release cytotoxicity (0.016602 µM): -0.631 ± 2.5% | LDH release cytotoxicity (0.0525 µM): 0.0827 ± 1.3% | LDH release cytotoxicity (0.16602 µM): -0.266 ± 1.6% | LDH release cytotoxicity (0.525 µM): 0.0034 ± 1.3% | LDH release cytotoxicity (1.660196 µM): -0.934 ± 0.13% | LDH release cytotoxicity (5.25 µM): -1.02 ± 0.65% | LDH release cytotoxicity (16.602 µM): -0.505 ± 0.51% | LDH release cytotoxicity (52.5 µM): -2.05 ± 3%

O=C1NS(=O)(=O)c2ccccc21 [Sodium saccharin hydrate]
LDH release cytotoxicity (0.03162 µM): -0.893 ± 0.069% | LDH release cytotoxicity (0.1 µM): -1.1 ± 0.76% | LDH release cytotoxicity (0.3162278 µM): -0.541 ± 0.034% | LDH release cytotoxicity (1 µM): -1.22 ± 0.43% | LDH release cytotoxicity (3.16228 µM): -1.77 ± 0.0062% | LDH release cytotoxicity (10 µM): -0.645 ± 0.66% | LDH release cytotoxicity (31.6228 µM): -0.345 ± 0.15% | LDH release cytotoxicity (100 µM): 1.33 ± 0.048%

CN(C)C1C(=O)C(C(N)=O)C(=O)C2(O)C(=O)C3C(=O)c4c(O)cccc4C(C)(O)C3C(O)C12 (configuration not stated) [Oxytetracycline dihydrate]
LDH release cytotoxicity (0.03162 µM): -2.54 ± 0.23% | LDH release cytotoxicity (0.1 µM): -1.62 ± 0.88% | LDH release cytotoxicity (0.3162278 µM): -1.71 ± 0.26% | LDH release cytotoxicity (1 µM): -1.95 ± 0.25% | LDH release cytotoxicity (3.16228 µM): -1.59 ± 0.099% | LDH release cytotoxicity (10 µM): -2.1 ± 0.93% | LDH release cytotoxicity (31.6228 µM): -3.27 ± 0.36% | LDH release cytotoxicity (100 µM): -4 ± 0.13%

O=C1c2ccccc2C(=O)N1CCc1noc(-c2ccc(CN3CCCCCC3)s2)n1
LDH release cytotoxicity (0.026721 µM): 1.83 ± 0.47% | LDH release cytotoxicity (0.0845 µM): -0.403 ± 0.25% | LDH release cytotoxicity (0.267212 µM): -0.399 ± 0.032% | LDH release cytotoxicity (0.845 µM): -0.205 ± 0.38% | LDH release cytotoxicity (2.67212 µM): -7.752 ± 0.013% | LDH release cytotoxicity (8.45 µM): 7.6 ± 1.2% | LDH release cytotoxicity (26.7213 µM): 1.47 ± 2.3% | LDH release cytotoxicity (84.5 µM): -1.5 ± 0.19%

CCC(C)OC(=O)N1CCCCC1CCO (configuration not stated) [Icaridin]
LDH release cytotoxicity (0.03162 µM): 6.64 ± 2.3% | LDH release cytotoxicity (0.1 µM): 4.72 ± 0.94% | LDH release cytotoxicity (0.3162278 µM): 4.33 ± 2.2% | LDH release cytotoxicity (1 µM): 5.97 ± 4% | LDH release cytotoxicity (3.16228 µM): 5.34 ± 1.5% | LDH release cytotoxicity (10 µM): 2.82 ± 1.4% | LDH release cytotoxicity (31.6228 µM): 8.294 ± 0.063% | LDH release cytotoxicity (100 µM): 9.41 ± 0.56%

O=C(O)CC(O)(CC(=O)O)C(=O)O [Citric acid]
LDH release cytotoxicity (0.03162 µM): 0.134 ± 0.67% | LDH release cytotoxicity (0.1 µM): -0.835 ± 0.31% | LDH release cytotoxicity (0.3162278 µM): -0.0952 ± 0.86% | LDH release cytotoxicity (1 µM): -1.29 ± 0.12% | LDH release cytotoxicity (3.16228 µM): -0.803 ± 0.025% | LDH release cytotoxicity (10 µM): 0.951 ± 0.43% | LDH release cytotoxicity (31.6228 µM): 0.893 ± 0.17% | LDH release cytotoxicity (100 µM): 0.958 ± 0.17%

CC12CCC3C(CCC4CC(=O)CCC43C)C1CCC2O (stereo not drawn) [5alpha-Dihydrotestosterone]
LDH release cytotoxicity (0.0322552 µM): -1.49 ± 0.51% | LDH release cytotoxicity (0.102 µM): -1.05 ± 0.64% | LDH release cytotoxicity (0.322552 µM): -1.02 ± 0.95% | LDH release cytotoxicity (1.02 µM): -0.777 ± 0.65% | LDH release cytotoxicity (3.2255232 µM): -0.0601 ± 0.54% | LDH release cytotoxicity (10.2 µM): 0.259 ± 0.88% | LDH release cytotoxicity (32.2552 µM): 2.27 ± 0.7% | LDH release cytotoxicity (102 µM): 7.51 ± 0.71%

Cc1ccc([N+](=O)[O-])cc1C [1,2-Dimethyl-4-nitrobenzene]
LDH release cytotoxicity (0.03162 µM): -1.16 ± 0.66% | LDH release cytotoxicity (0.1 µM): -1.81 ± 0.53% | LDH release cytotoxicity (0.3162278 µM): -1.44 ± 0.14% | LDH release cytotoxicity (1 µM): -1.1 ± 0.27% | LDH release cytotoxicity (3.16228 µM): -1.56 ± 0.13% | LDH release cytotoxicity (10 µM): -1.07 ± 0.013% | LDH release cytotoxicity (31.6228 µM): -0.524 ± 0.73% | LDH release cytotoxicity (100 µM): 0.459 ± 1.3%

O=c1c(-c2ccc(O)cc2)coc2cc(O)cc(O)c12 [Genistein]
LDH release cytotoxicity (0.03162 µM): -1.15 ± 0.87% | LDH release cytotoxicity (0.1 µM): 0.689 ± 1.7% | LDH release cytotoxicity (0.3162278 µM): -2.06 ± 0.49% | LDH release cytotoxicity (1 µM): -1.48 ± 0.77% | LDH release cytotoxicity (3.16228 µM): -1.52 ± 0.039% | LDH release cytotoxicity (10 µM): -1.28 ± 0.36% | LDH release cytotoxicity (31.6228 µM): -1.5 ± 0.3% | LDH release cytotoxicity (100 µM): 1.33 ± 0.27%

Cc1ccccc1N [2-Methylaniline]
LDH release cytotoxicity (0.03162 µM): -1.2 ± 0.49% | LDH release cytotoxicity (0.1 µM): -0.736 ± 0.52% | LDH release cytotoxicity (0.3162278 µM): -0.698 ± 0.12% | LDH release cytotoxicity (1 µM): -0.759 ± 0.47% | LDH release cytotoxicity (3.16228 µM): -1.37 ± 0.23% | LDH release cytotoxicity (10 µM): -0.264 ± 0.12% | LDH release cytotoxicity (31.6228 µM): -0.213 ± 0.19% | LDH release cytotoxicity (100 µM): 0.285 ± 0.61%

OC(Cn1cncn1)(Cn1cncn1)c1ccc(F)cc1F [Fluconazole]
LDH release cytotoxicity (0.03162 µM): -1.56 ± 0.43% | LDH release cytotoxicity (0.1 µM): -0.0671 ± 1.1% | LDH release cytotoxicity (0.3162278 µM): 0.556 ± 0.68% | LDH release cytotoxicity (1 µM): -0.472 ± 0.33% | LDH release cytotoxicity (3.16228 µM): 0.965 ± 0.97% | LDH release cytotoxicity (10 µM): 0.138 ± 0.29% | LDH release cytotoxicity (31.6228 µM): 0.241 ± 0.57% | LDH release cytotoxicity (100 µM): 0.712 ± 0.97%

CCCOC(=O)c1ccc(C(=O)OCCC)nc1 [Dipropyl 2,5-pyridinedicarboxylate]
LDH release cytotoxicity (0.03305 µM): -4.74 ± 0.19% | LDH release cytotoxicity (0.1045 µM): -5.46 ± 0.7% | LDH release cytotoxicity (0.330458 µM): -5.78 ± 1.4% | LDH release cytotoxicity (1.045 µM): -4.98 ± 2.6% | LDH release cytotoxicity (3.30458 µM): -5.75 ± 0.92% | LDH release cytotoxicity (10.45 µM): -5.51 ± 1.6% | LDH release cytotoxicity (33.0458 µM): -4.96 ± 1.7% | LDH release cytotoxicity (104.5 µM): -4.42 ± 1.1%

O=C(O)Cn1c(=O)n(Cc2ccc(Br)cc2F)c(=O)c2ccc(Cl)cc21 [Zenarestat]
LDH release cytotoxicity (0.03162 µM): -0.858 ± 0.89% | LDH release cytotoxicity (0.1 µM): -0.293 ± 1.2% | LDH release cytotoxicity (0.3162278 µM): -0.841 ± 0.43% | LDH release cytotoxicity (1 µM): -0.408 ± 0.56% | LDH release cytotoxicity (3.16228 µM): -0.109 ± 1.5% | LDH release cytotoxicity (10 µM): 0.443 ± 0.12% | LDH release cytotoxicity (31.6228 µM): -0.513 ± 0.13% | LDH release cytotoxicity (100 µM): 0.792 ± 0.4%

CCN(CC)c1ccccc1 [N,N-Diethylaniline]
LDH release cytotoxicity (0.03162 µM): -1.55 ± 0.24% | LDH release cytotoxicity (0.1 µM): -1.44 ± 0.47% | LDH release cytotoxicity (0.3162278 µM): -1.37 ± 0.23% | LDH release cytotoxicity (1 µM): -1.59 ± 0.4% | LDH release cytotoxicity (3.16228 µM): -0.839 ± 0.86% | LDH release cytotoxicity (10 µM): -1.07 ± 0.4% | LDH release cytotoxicity (31.6228 µM): -0.362 ± 0.47% | LDH release cytotoxicity (100 µM): 0.493 ± 0.011%

COc1cc(S(=O)(=O)O)c(C)cc1N=Nc1c(O)ccc2cc(S(=O)(=O)O)ccc12
LDH release cytotoxicity (0.03162 µM): -0.0925 ± 0.66% | LDH release cytotoxicity (0.1 µM): -0.495 ± 0.4% | LDH release cytotoxicity (0.3162278 µM): -0.745 ± 0.75% | LDH release cytotoxicity (1 µM): -1.36 ± 1.1% | LDH release cytotoxicity (3.16228 µM): -1.42 ± 0.71% | LDH release cytotoxicity (10 µM): -1.6 ± 0.25% | LDH release cytotoxicity (31.6228 µM): -1.96 ± 0.065% | LDH release cytotoxicity (100 µM): -2.81 ± 0.42%

O=NN(c1ccccc1)c1ccccc1 [N-Nitrosodiphenylamine]
LDH release cytotoxicity (0.03162 µM): -1.74 ± 0.78% | LDH release cytotoxicity (0.1 µM): -0.497 ± 0.4% | LDH release cytotoxicity (0.3162278 µM): -1.57 ± 1.3% | LDH release cytotoxicity (1 µM): -1.63 ± 0.68% | LDH release cytotoxicity (3.16228 µM): -0.54 ± 0.41% | LDH release cytotoxicity (10 µM): -0.535 ± 0.14% | LDH release cytotoxicity (31.6228 µM): 1.3 ± 1.2% | LDH release cytotoxicity (100 µM): 15.9 ± 4.8%

CCN(CC)c1nc(C)cc(OP(=S)(OC)OC)n1 [Pirimiphos-methyl]
LDH release cytotoxicity (0.03162 µM): 0.287 ± 2% | LDH release cytotoxicity (0.1 µM): -1.19 ± 1.6% | LDH release cytotoxicity (0.3162278 µM): -1.08 ± 0.22% | LDH release cytotoxicity (1 µM): -0.906 ± 0.67% | LDH release cytotoxicity (3.16228 µM): -1.49 ± 0.077% | LDH release cytotoxicity (10 µM): -0.783 ± 0.59% | LDH release cytotoxicity (31.6228 µM): -1.01 ± 0.3% | LDH release cytotoxicity (100 µM): -1.29 ± 0.47%
